Test results taken from ChEMBL document CHEMBL1146222, “Cyclic depsipeptides, ichthyopeptins A and B, from Microcystis ichthyoblabe” (J Nat Prod, 2007).
In brackets after ≈: the same amount, converted by molar mass.

System: Influenza A virus
Assay: Antiviral activity against Influenza A virus (A/WSN/33/London (H1N1)) in MDCK cells after 72 hrs by neutral red dye uptake assy
Format: functional, organism-based

SMILES: NC12CC3CC(CC(C3)C1)C2 [AMANTADINE]
- IC50: 15 µg/mL (≈ 99.2 µM)
